From PubChem BioAssay AID192 (DTP/NCI, 2004)
Where “and” joins values, the source holds several entries; their conditions need not be identical. Identical values can stand only once. Toxic doses and inconclusive results are not listed.

System: BDF1 mice, B16 melanoma ip, median survival T/C
Experiment: NCI In Vivo Anticancer Drug Screen. Data for tumor model B16 Melanoma (intraperitoneal) in B6D2F1 (BDF1) mice
Conditions: endpoint: median survival time, higher = longer survival
Summary of the method: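 In this screen, activity was judged from survival or tumor size in treated versus vehicle-treated tumor-bearing mice, reported as T/C.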

[1] = dose: 12.5 mg/kg/injection, schedule: Q01DX009 (ip), vehicle: saline with Tween-80
[2] = dose: 25.0 mg/kg/injection, schedule: Q01DX009 (ip), vehicle: saline with Tween-80
[3] = dose: 50.0 mg/kg/injection, schedule: Q01DX009 (ip), vehicle: saline with Tween-80
[4] = dose: 12.5 mg/kg/injection, schedule: Q01DX009 (ip), vehicle: Klucel (hydroxypropylcellulose) (HPC)
[5] = dose: 25.0 mg/kg/injection, schedule: Q01DX009 (ip), vehicle: Klucel (hydroxypropylcellulose) (HPC)
[6] = dose: 6.25 mg/kg/injection, schedule: Q01DX009 (ip), vehicle: Klucel (hydroxypropylcellulose) (HPC)
[7] = dose: 100.0 mg/kg/injection, schedule: Q01DX009 (ip), vehicle: saline with Tween-80
[8] = dose: 200.0 mg/kg/injection, schedule: Q01DX009 (ip), vehicle: saline with Tween-80
[9] = dose: 50.0 mg/kg/injection, schedule: Q01DX009 (ip), vehicle: Klucel (hydroxypropylcellulose) (HPC)
[10] = dose: 100.0 mg/kg/injection, schedule: Q01DX009 (ip), vehicle: Klucel (hydroxypropylcellulose) (HPC)
[11] = dose: 200.0 mg/kg/injection, schedule: Q01DX009 (ip), vehicle: Klucel (hydroxypropylcellulose) (HPC)
[12] = dose: 400.0 mg/kg/injection, schedule: Q01DX009 (ip), vehicle: saline with Tween-80
[13] = dose: 50.0 mg/kg/injection, schedule: Q01DX009 (ip), vehicle: saline
[14] = dose: 100.0 mg/kg/injection, schedule: Q01DX009 (ip), vehicle: saline
[15] = dose: 1.56 mg/kg/injection, schedule: Q01DX009 (ip), vehicle: Klucel (hydroxypropylcellulose) (HPC)
[16] = dose: 3.12 mg/kg/injection, schedule: Q01DX009 (ip), vehicle: Klucel (hydroxypropylcellulose) (HPC)
[17] = dose: 6.25 mg/kg/injection, schedule: Q01DX009 (ip), vehicle: saline with Tween-80

In the case of CC(=O)OC(CC(O)(C(F)(F)F)C(F)(F)F)C(C)(C)C (stereo not drawn), the T/C [1] was 120 % of control, the T/C (dose: 12.5 mg/kg/injection, schedule: Q04DX003 (ip), vehicle: saline with Tween-80) was 105 % of control and the T/C [2] was 117 % of control. For the same compound, the T/C (dose: 25.0 mg/kg/injection, schedule: Q04DX003 (ip), vehicle: saline with Tween-80) was 105 % of control, the T/C [3] was 97 % of control and the T/C (dose: 50.0 mg/kg/injection, schedule: Q04DX003 (ip), vehicle: saline with Tween-80) was 117 % of control.

In the case of C[Si]1(C)CCCSC1, the T/C [1] was 98 % of control, the T/C [2] was 98 % of control and the T/C [3] was 91 % of control.

In the case of CCCCCCCCCCCCCCCCC(C(=O)O)C(O)(CC(=O)O)C(=O)O (stereo not drawn), the T/C [4] was 101 % of control and the T/C [5] was 90 % of control.

For [Cl][Pt+2][Br].[NH-]CC[NH-], the T/C (dose: 0.47 mg/kg/injection, schedule: Q04DX003 (ip), vehicle: saline with Tween-80) was 110 % of control, the T/C (dose: 0.5 mg/kg/injection, schedule: Q01DX009 (ip), vehicle: saline) was 110 % of control and the T/C (dose: 0.95 mg/kg/injection, schedule: Q04DX003 (ip), vehicle: saline with Tween-80) was 118 % of control. For the same compound, the T/C (dose: 1.0 mg/kg/injection, schedule: Q01DX009 (ip), vehicle: saline) was 110 % of control, the T/C (dose: 1.9 mg/kg/injection, schedule: Q04DX003 (ip), vehicle: saline with Tween-80) was 105 % of control and the T/C (dose: 2.0 mg/kg/injection, schedule: Q01DX009 (ip), vehicle: saline) was 110 % of control.

CC(Cc1ccccc1)NC(C#N)c1ccccc1 (stereo not drawn) was tested, and the T/C [6] was 100 % of control, the T/C [4] was 87 % of control and the T/C [5] was 90 % of control.

With O=[N+]([O-])c1ccc2c(N=Nc3c(O)ccc4ccccc34)c(O)cc(S(=O)(=O)O)c2c1 the T/C [7] was 106 % of control and the T/C [8] was 102 % of control.

With O=C1NC(c2ccccc2Cl)Nc2ccccc21 (stereo not drawn) the T/C [9] was 103 % of control, the T/C [10] was 98 % of control and the T/C [11] was 98 % of control. The T/C (dose: 400.0 mg/kg/injection, schedule: Q01DX009 (ip), vehicle: Klucel (hydroxypropylcellulose) (HPC)) was 108 % of control.

With CCC1CCCCC1(O)CC (stereo not drawn) the T/C [9] was 98 % of control and the T/C [10] was 99 % of control.

For O=[N+]([O-])c1cccc(S(=O)(=O)Nc2ccccc2Cl)c1, the T/C [7] was 90 % of control, the T/C [8] was 95 % of control and the T/C [12] was 95 % of control.

For CCOc1ccc(N2CSC(=S)N(c3ccc(OCC)cc3)C2)cc1, the T/C [9] was 99 % of control, the T/C [10] was 94 % of control and the T/C [11] was 88 % of control.

In the case of CCC(=O)NCC1(c2ccccc2)CCN(CC2COc3ccccc3O2)CC1 (stereo not drawn), the T/C (dose: 25.0 mg/kg/injection, schedule: Q04DX003 (ip), vehicle: saline) was 116 % of control, the T/C (dose: 50.0 mg/kg/injection, schedule: Q04DX003 (ip), vehicle: saline) was 107 % of control and the T/C (dose: 100.0 mg/kg/injection, schedule: Q04DX003 (ip), vehicle: saline) was 105 % of control.

With ClCCN(CCCl)c1ccc(/C=C/c2ccccc2)cc1 the T/C [6] was 98 % of control, the T/C [4] was 96 % of control and the T/C [5] was 96 % of control. For the same compound, the T/C [9] was 90 % of control and the T/C [10] was 101 % of control.

In the case of O=C(c1ccncc1)c1c(Cc2ccccc2)ccc2ccccc12, the T/C [3] was 100 % of control, the T/C [7] was 99 % of control and the T/C [8] was 95 % of control. The T/C [12] was 95 % of control.

For Nc1ncnc2c1c1c(N)[nH]nc1n2C1OC(CO)C(O)C1O (stereo not drawn), the T/C (dose: 25.0 mg/kg/injection, schedule: Q01DX009 (ip), vehicle: saline) was 110 % of control, the T/C [13] was 106 % of control and the T/C [14] was 95 % of control.

CN(C)CC1CCCCN1 (stereo not drawn) was tested, and the T/C [13] was 100 % of control, the T/C [14] was 100 % of control and the T/C (dose: 200.0 mg/kg/injection, schedule: Q01DX009 (ip), vehicle: saline) was 100 % of control.

COc1cccc(NC(=O)CCC(=O)O)c1 was tested, and the T/C [15] was 89 % of control, the T/C [16] was 102 % of control and the T/C [6] was 92 % of control. For the same compound, the T/C [4] was 94 % of control.

In the case of CN(C)S(=O)(=O)C(C)(C)c1ccccc1, the T/C [3] was 90 % of control, the T/C [7] was 93 % of control and the T/C [8] was 95 % of control.

In the case of NC(=O)NC(=O)c1cccc([N+](=O)[O-])c1, the T/C [3] was 104 % of control, the T/C [7] was 102 % of control and the T/C [8] was 102 % of control.

In the case of O=C(O)c1ccc(C(=O)O)c(C(=O)O)c1.[NH-]C1CCCCC1[NH-].[Pt+2], the T/C (dose: 0.19 mg/kg/injection, schedule: Q01DX009 (ip), vehicle: sodium bicarbonate) was 151 % of control, the T/C (dose: 0.39 mg/kg/injection, schedule: Q01DX009 (ip), vehicle: sodium bicarbonate) was 118 % of control and the T/C (dose: 0.4 mg/kg/injection, schedule: Q01DX009 (ip), vehicle: sodium bicarbonate) was 116 % of control. For the same compound, the T/C (dose: 0.78 mg/kg/injection, schedule: Q01DX009 (ip), vehicle: sodium bicarbonate) was 185 % of control, the T/C (dose: 0.8 mg/kg/injection, schedule: Q01DX009 (ip), vehicle: other) was 165 % of control and the T/C (dose: 1.56 mg/kg/injection, schedule: Q01DX009 (ip), vehicle: other) was 181 % of control. The T/C (dose: 1.56 mg/kg/injection, schedule: Q01DX009 (ip), vehicle: sodium bicarbonate) was 158 % of control and 159 % of control, the T/C (dose: 1.6 mg/kg/injection, schedule: Q01DX009 (ip), vehicle: other) was 157 % of control and the T/C (dose: 1.6 mg/kg/injection, schedule: Q01DX009 (ip), vehicle: sodium bicarbonate) was 161 % of control. For the same compound, the T/C (dose: 3.12 mg/kg/injection, schedule: Q01DX009 (ip), vehicle: other) was 169 % of control, the T/C (dose: 3.2 mg/kg/injection, schedule: Q01DX009 (ip), vehicle: sodium bicarbonate) was 168 % of control and the T/C (dose: 4.8 mg/kg/injection, schedule: Q01DX009 (ip), vehicle: sodium bicarbonate) was 169 % of control. For the same compound, the T/C (dose: 6.25 mg/kg/injection, schedule: Q01DX009 (ip), vehicle: other) was 171 % of control.

For COc1ccccc1NC(=O)Nc1cccc(Cl)c1, the T/C [17] was 105 % of control, the T/C [1] was 97 % of control and the T/C [2] was 100 % of control.

COc1cc(C=Nc2cccc(Br)c2)ccc1N(CCCl)CCCl was tested, and the T/C (dose: 0.8 mg/kg/injection, schedule: Q01DX009 (ip), vehicle: saline with Tween-80) was 113 % of control, the T/C [15] was 113 % of control and the T/C [16] was 115 % of control. The T/C [17] was 164 % of control, the T/C [4] was 163 % of control and the T/C [1] was 158 % of control.

[O-][n+]1c(CN2CCCCC2)nc2cccc3c2c1-c1ccccc1-3 was tested, and the T/C [9] was 102 % of control, the T/C [10] was 119 % of control and the T/C [11] was 113 % of control.

With O=S1(=O)C=Cc2ccccc21 the T/C [9] was 90 % of control, the T/C [10] was 88 % of control and the T/C [11] was 88 % of control.

CC1(C)N=C(N)N=C(N)N1c1cc(Cl)ccc1Cl was tested, and the T/C [6] was 94 % of control, the T/C [4] was 92 % of control and the T/C [5] was 89 % of control and 94 % of control.

For Cc1c(CCl)c(C)c(CCl)c(C)c1CCl, the T/C (dose: 3.0 mg/kg/injection, schedule: Q01DX009 (ip), vehicle: Klucel (hydroxypropylcellulose) (HPC)) was 102 % of control, the T/C (dose: 6.0 mg/kg/injection, schedule: Q01DX009 (ip), vehicle: Klucel (hydroxypropylcellulose) (HPC)) was 100 % of control and the T/C (dose: 12.0 mg/kg/injection, schedule: Q01DX009 (ip), vehicle: Klucel (hydroxypropylcellulose) (HPC)) was 100 % of control.

CC1=CC(=Nc2ccc(N(CCCl)CCCl)cc2)C=C(C)C1=O was tested, and the T/C [16] was 102 % of control and 110 % of control, the T/C [4] was 160 % of control and the T/C [5] was 160 % of control. The T/C [10] was 158 % of control.

In the case of COc1cccc2c1C(=O)c1c(O)c3c(c(O)c1C2=O)C[C@@](O)(/C(C)=N\NC(=O)CO)C[C@@H]3OC1CC(N)C(O)C(C)O1 (stereo partly drawn), the T/C (dose: 0.39 mg/kg/injection, schedule: Q01DX009 (ip), vehicle: saline) was 117 % of control, the T/C (dose: 1.56 mg/kg/injection, schedule: Q01DX009 (ip), vehicle: saline) was 162 % of control and the T/C (dose: 2.5 mg/kg/injection, schedule: Q01DX001 (ip), vehicle: water) was 97 % of control and 100 % of control. For the same compound, the T/C (dose: 3.12 mg/kg/injection, schedule: Q01DX009 (ip), vehicle: saline) was 173 % of control and 218 % of control, the T/C (dose: 6.25 mg/kg/injection, schedule: Q01DX009 (ip), vehicle: saline) was 206 % of control and 375 % of control and the T/C (dose: 10.0 mg/kg/injection, schedule: Q01DX001 (ip), vehicle: water) was 108 % of control and 250 % of control. For the same compound, the T/C (dose: 20.0 mg/kg/injection, schedule: Q01DX001 (ip), vehicle: water) was 87 % of control and 102 % of control and the T/C (dose: 40.0 mg/kg/injection, schedule: Q01DX001 (ip), vehicle: water) was 95 % of control.
